From patent publication US20230002359A1, “PESTICIDALLY ACTIVE FUSED BICYCLIC HETEROAROMATIC COMPOUNDS” (priority 2019, published 2023)
Where two headings read alike, the source gives them in different places.

Assays:
Assay type in all cases: in vivo
[1] = system: Chilo suppressalis (Striped Rice Stemborer); assay: Example B3: Chilo suppressalis (striped rice stemborer), artificial diet, L2 larvae; settings: 144 h, read-out: control in at least one of the three categories (mortality, anti-feedant effect, or growth inhibition)
Method: 24-well microtiter plates with artificial diet were treated with aqueous test solutions prepared from 10′000 ppm DMSO stock solutions by pipetting. After drying, the plates were infested with L2 larvae (6-8 per well). The samples were assessed for mortality, anti-feeding effect, and growth inhibition in comparison to untreated samples 6 days after infestation. Control of Chilo suppressalis by a test sample is given when at least one of the categories mortality, anti-feedant effect, and growth inhibition is higher than the untreated sample.

[2] = system: Diabrotica Balteata (Corn Root Worm); assay: Example B1: Diabrotica balteata (corn root worm), maize sprouts sprayed, L2 larvae; settings: 96 h, application rate of 200 ppm, 4 days after infestation, L2 larvae, read-out: control in at least one of the two categories (mortality or growth inhibition)
Method: Maize sprouts placed onto an agar layer in 24-well microtiter plates were treated with aqueous test solutions prepared from 10′000 ppm DMSO stock solutions by spraying. After drying, the plates were infested with L2 larvae (6 to 10 per well). The samples were assessed for mortality and growth inhibition in comparison to untreated samples 4 days after infestation.

[3] = system: Plutella xylostella (Diamond Back Moth); assay: Example B4: Plutella xylostella (diamond back moth), artificial diet, eggs, 24-well; settings: 192 h, read-out: control in at least one of the two categories (mortality or growth inhibition)
Method: 24-well microtiter plates with artificial diet were treated with aqueous test solutions prepared from 10′000 ppm DMSO stock solutions by pipetting. After drying, Plutella eggs were pipetted through a plastic stencil onto a gel blotting paper and the plate was closed with it. The samples were assessed for mortality and growth inhibition in comparison to untreated samples 8 days after infestation.

[4] = application rate of 200 ppm, 6 days after infestation, L2 larvae
[5] = application rate of 200 ppm, 8 days after infestation, eggs

| Structure (SMILES) | percent control (mortality, anti-feedant effect or growth inhibition) at 200 ppm [1, 4] [%] | percent control (mortality or growth inhibition) at 200 ppm [2] [%] | percent control (mortality or growth inhibition) at 200 ppm [3, 5] [%] | percent control (mortality, anti-feedant effect or growth inhibition) at 200 ppm [1] [%] | percent control (mortality or growth inhibition) at 200 ppm [3] [%] |
| --- | --- | --- | --- | --- | --- |
| CC(Nc1nc(Cl)nc2c(Cl)cc(C(F)(F)F)cc12)c1ncnn1-c1ncccn1 (stereo not shown) [P.48, 2,8-dichloro-N-[1-(2-pyrimidin-2-yl-1,2,4-triazol-3-yl)ethyl]-6-(trifluoromethyl)quinazolin-4-amine] | ≥ 80 | – | – | – | – |
| CC(Nc1nc(Cl)nc2c(Br)cc(C(F)(F)F)cc12)c1ncnn1-c1ncccn1 (stereo not shown) [P.51, 8-bromo-2-chloro-N-[1-(2-pyrimidin-2-yl-1,2,4-triazol-3-yl)ethyl]-6-(trifluoromethyl)quinazolin-4-amine] | ≥ 80 | – | – | – | – |
| CC(c1nccnc1-c1ccc(C#N)cn1)N(CC1CC1)c1ncnc2c(Cl)cc(C(F)(F)F)cc12 (stereo not shown) [P.72, 6-[3-[1-[[8-chloro-6-(trifluoromethyl)quinazolin-4-yl]-(cyclopropylmethyl)amino]ethyl]pyrazin-2-yl]pyridine-3-carbonitrile] | ≥ 80 | ≥ 80 | ≥ 80 | – | – |
| CC(c1nccnc1-c1ccc(C#N)cn1)N(CC1CC1)c1ncnc2c(Br)cc(C(F)(F)F)cc12 (stereo not shown) [P.73, 6-[3-[1-[[8-bromo-6-(trifluoromethyl)quinazolin-4-yl]-(cyclopropylmethyl)amino]ethyl]pyrazin-2-yl]pyridine-3-carbonitrile] | ≥ 80 | ≥ 80 | ≥ 80 | – | – |
| CC(c1nccnc1-n1nccn1)N(CC1CC1)c1ncnc2c(Cl)cc(C(F)(F)F)cc12 (stereo not shown) [P.76, 8-chloro-N-(cyclopropylmethyl)-N-[1-[3-(triazol-2-yl)pyrazin-2-yl]ethyl]-6-(trifluoromethyl)quinazolin-4-amine] | ≥ 80 | ≥ 80 | ≥ 80 | – | – |
| CC(c1nccnc1-n1nccn1)N(CC1CC1)c1ncnc2c(C(F)(F)F)cc(Cl)cc12 (stereo not shown) [P.77, 6-chloro-N-(cyclopropylmethyl)-N-[1-[3-(triazol-2-yl)pyrazin-2-yl]ethyl]-8-(trifluoromethyl)quinazolin-4-amine] | ≥ 80 | ≥ 80 | ≥ 80 | – | – |
| CC(c1nccnc1-c1ncccn1)N(CC1CC1)c1ncnc2c(C(F)(F)F)cc(Br)cc12 (stereo not shown) [P.80, 6-bromo-N-(cyclopropylmethyl)-N-[1-(3-pyrimidin-2-ylpyrazin-2-yl)ethyl]-8-(trifluoromethyl)quinazolin-4-amine] | ≥ 80 | ≥ 80 | ≥ 80 | – | – |
| CC(c1nccnc1-c1ncccn1)N(CC1CC1)c1ncnc2c(Cl)cc(C(F)(F)F)cc12 (stereo not shown) [P.81, 8-chloro-N-(cyclopropylmethyl)-N-[1-(3-pyrimidin-2-ylpyrazin-2-yl)ethyl]-6-(trifluoromethyl)quinazolin-4-amine] | ≥ 80 | ≥ 80 | ≥ 80 | – | – |
| CC(Nc1ccnc2c(C(F)(F)F)cc(C(F)(F)F)cc12)c1nccnc1-c1ncccn1 (stereo not shown) [P.85, N-[1-(3-pyrimidin-2-ylpyrazin-2-yl)ethyl]-6,8-bis(trifluoromethyl)quino-lin-4-amine] | ≥ 80 | ≥ 80 | ≥ 80 | – | – |
| CC(Nc1ncnc2c(C(F)(F)F)cc(C(F)(F)F)cc12)c1ncnn1-c1ncc(Br)cn1 (stereo not shown) [P.92, N-[1-[2-(5-bromopyrimidin-2-yl)-1,2,4-triazol-3-yl]ethyl]-6,8-bis(trifluoromethyl)quina-zolin-4-amine] | ≥ 80 | ≥ 80 | ≥ 80 | – | – |
| CC(Nc1ncnc2c(Br)cc(Cl)cc12)c1ncnn1-c1ccc(C#N)cn1 (stereo not shown) [P.158, 6-[5-[1-[(8-bromo-6-chloro-quinazolin-4-yl)amino]ethyl]-1,2,4-triazol-1-yl]pyridine-3-carbonitrile] | ≥ 80 | – | ≥ 80 | – | – |
| COC(=O)N(c1ncnc2c(C(F)(F)F)cc(C(F)(F)F)cc12)C(C)c1ncnn1-c1ccc(C#N)cn1 (stereo not shown) [P.167, methyl N-[6,8-bis(trifluoromethyl)quina-zolin-4-yl]-N-[1-[2-(5-cyano-2-pyridyl)-1,2,4-triazol-3-yl]ethyl]carbamate] | – | – | – | ≥ 80 | ≥ 80 |
| C[C@@H](c1ncnn1-c1ccc(C#N)cn1)N(C)c1ncnc2c(C(F)(F)F)cc(C(=O)C3CC3)cc12 [P.170, 6-[5-[(1S)-1-[[6-(cyclopropanecarbonyl)-8-(trifluoromethyl)quinazolin-4-yl]-methyl-amino]ethyl]-1,2,4-triazol-1-yl]pyridine-3-carbonitrile] | ≥ 80 | – | ≥ 80 | – | – |
| CC(c1nccnc1-n1nccn1)N(C)c1ncnc2c(Br)cc(OC(F)(F)F)cc12 (stereo not shown) [P.179, 8-bromo-N-methyl-N-[1-[3-(triazol-2-yl)pyrazin-2-yl]ethyl]-6-(trifluoromethoxy)quinazo-lin-4-amine] | ≥ 80 | ≥ 80 | ≥ 80 | – | – |
| CC(c1nccnc1-n1nccn1)N(C)c1ncnc2c(OC(F)F)cc(Br)cc12 (stereo not shown) [P.180, 6-bromo-8-(difluoromethoxy)-N-methyl-N-[1-[3-(triazol-2-yl)pyrazin-2-yl]ethyl]quinazolin-4-amine] | ≥ 80 | ≥ 80 | ≥ 80 | – | – |
| C[C@@H](c1ncnn1-c1ncccn1)N(C)c1c(Cl)cnc2c(C(F)(F)F)cc(C(F)(F)F)cc12 [P.181, 3-chloro-N-methyl-N-[(1S)-1-(2-pyrimidin-2-yl-1,2,4-triazol-3-yl)ethyl]-6,8-bis(trifluoromethyl)quinolin-4-amine] | – | ≥ 80 | ≥ 80 | – | – |
| CC(Nc1ncnc2c(Br)cc(C(F)(F)F)cc12)c1ncnn1-c1ccc(F)cn1 (stereo not shown) [P.186, 8-bromo-N-[1-[2-(5-fluoro-2-pyridyl)-1,2,4-triazol-3-yl]ethyl]-6-(trifluoromethyl)quinazolin-4-amine] | ≥ 80 | ≥ 80 | ≥ 80 | – | – |
| CC(Nc1ncnc2c(C(F)(F)F)cc(C(F)(F)F)cc12)c1ncnn1-c1ccc(OC(F)F)cn1 (stereo not shown) [P.193, N-[1-[2-[5-(difluoromethoxy)-2-pyridyl]-1,2,4-triazol-3-yl]ethyl]-6,8-bis(trifluoromethyl)quina-zolin-4-amine] | ≥ 80 | ≥ 80 | ≥ 80 | – | – |
| CC(c1nccnc1-c1ccc(Br)cn1)N(C)c1ncnc2c(C(F)(F)F)cc(Br)cc12 (stereo not shown) [P.196, 6-bromo-N-[1-[3-(5-bromo-2-pyridyl)pyrazin-2-yl]ethyl]-N-methyl-8-(trifluoromethyl)quinazolin-4-amine] | – | ≥ 80 | – | – | – |
| CC(Nc1ncnc2c(C(F)(F)F)cc(Br)cc12)c1nccnc1-c1ccc(Br)cn1 (stereo not shown) [P.198, 6-bromo-N-[1-[3-(5-bromo-2-pyridyl)pyrazin-2-yl]ethyl]-8-(trifluoromethyl)quinazolin-4-amine] | ≥ 80 | – | ≥ 80 | – | – |
| CC(Nc1nccc2c(C(F)(F)F)cc(C(F)(F)F)cc12)c1ncnn1-c1ccc(C#N)cn1 (stereo not shown) [P.210, 6-[5-[1-[[5,7-bis(trifluoromethyl)-1-isoquinolyl]amino]ethyl]-1,2,4-triazol-1-yl]pyridine-3-carbonitrile] | – | ≥ 80 | ≥ 80 | – | – |
| CC(Nc1ncnc2c(C(F)(F)F)cc(C(F)(F)F)cc12)c1ncnn1-c1ccc(F)cn1 (stereo not shown) [P.233, N-[1-[2-(5-fluoro-2-pyridyl)-1,2,4-triazol-3-yl]ethyl]-6,8-bis(trifluoromethyl)quina-zolin-4-amine] | – | – | ≥ 80 | – | – |
| CC(Nc1ncnc2c(Cl)cc(C(F)(F)F)cc12)c1ncnn1-c1ccc(Br)cn1 (stereo not shown) [P.267, N-[1-[2-(5-bromo-2-pyridyl)-1,2,4-triazol-3-yl]ethyl]-8-chloro-6-(trifluoromethyl)quinazolin-4-amine] | ≥ 80 | – | – | – | – |
| CC(Nc1ncnc2c(C(F)(F)F)cc(C(F)(F)F)cc12)c1ncnn1-c1ccc(Br)cn1 (stereo not shown) [P.268, N-[1-[2-(5-bromo-2-pyridyl)-1,2,4-triazol-3-yl]ethyl]-6,8-bis(trifluoromethyl)quina-zolin-4-amine] | – | ≥ 80 | ≥ 80 | – | – |
